From ChEMBL document CHEMBL1201862, “PubChem BioAssay data set” (2004)
Calls of active or inactive are those of the source.

What was measured:
[1] = NIH-3T3 fibroblast cytotoxicity, dose response, cytotoxicity control, cell-based, fluorescence, Alamar Blue, secondary assay (AID 2327); type: functional;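 note: NIH-3T3 mouse fibroblasts cultured with fluconazole at 8 µg/mL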
BJ [2] = assay: BJ-TERT fibroblast viability loss – cell-based, RAS-independent, luminescence, dose response (AID 1933); type: functional; settings: Homo sapiens
BJ [3] = assay: cells; type: functional, cell-based; settings: Homo sapiens
[4] = fluconazole-exposed Candida albicans growth modulators – fluorescence, retest, confirmation (AID 2467); type: functional, cell-based
BJ [5] = assay: BJ-TERT-LT-ST fibroblast viability loss – cell-based, RAS-independent, luminescence, dose response (AID 1935); type: functional; settings: Homo sapiens;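 note: BJ fibroblasts immortalized with TERT plus LT and ST oncogenes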
[6] = DRD fibroblast viability loss – cell-based, non-viral oncogenic, luminescence, dose response (AID 1934); type: functional; settings: Homo sapiens
Trypsin = Trypsin (Sus scrofa, UniProt P00761); assay: trypsin protease activity blockade – biochemical, quenched peptide fluorescence, cherry-pick, selectivity assay for Rce1 protease inhibitor project, dose response (AID 488789)
[7] = HEK-293T viability loss after treatment – luminescence, T-cell screen hits, cytotoxicity control for TCR NF-kB inhibitor project, dose response (AID 489026); type: functional, cell-based;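 note: cells exposed to compound about 14 hours before the viability readout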
CAAX prenyl protease 1 = CAAX prenyl protease 1 (Saccharomyces cerevisiae S288c, UniProt P47154); assay: yeast CAAX protease Ste24 inhibition – biochemical, S. cerevisiae, plate reader, cherry-pick, dose response (AID 488815)
INS1 = assay: INS-1E survival protection against cytokine death – cell-based, luminescence, retest, dose response (AID 449756); type: functional; settings: Rattus norvegicus;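 note: cell death triggered by IL-1 beta plus TNF-alpha plus IFN-gamma mixture; protective hits raise ATP signal compared with cytokine alone wells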
CAAX prenyl protease 2 = CAAX prenyl protease 2 (Homo sapiens, UniProt Q9Y256); assay: inhibition of Ras-converting CAAX protease Rce1 – biochemical, yeast membranes, quenched-peptide fluorescence, cherry-pick, dose response (AID 588849)
[8] = target: T1, Delta-type opioid receptor (Homo sapiens, UniProt P41143); assay: HTS Image-Based Screen for Antagonists of the DOR Receptor. [Related pubchem assays (depositor defined):AID1777, AID1785, AID1786, AID2133]; type: functional
Mu-type opioid receptor [9] = target: T2, Mu-type opioid receptor (Homo sapiens, UniProt P35372); assay: HTS Image-Based Screen for Agonists of the MOR Receptor. [Related pubchem assays (depositor defined):AID1777, AID1785, AID1786, AID2133]; type: functional
[10] = test system: Streptococcus sp. 'group A'; assay: Streptococcus pyogenes SK(-)GAS viability under kanamycin – luminescence, BacTiterGlo, confirmation, counter-screen for streptokinase expression inhibitor project, dose response (AID 1900); type: functional, organism-based
[11] = target: T1, Delta-type opioid receptor; assay: HTS Image-Based Screen for Agonists of the DOR Receptor. [Related pubchem assays (depositor defined):AID1777, AID1786, AID2133]; type: functional
Beta-galactosidase [12] = target: T3, Beta-galactosidase (Escherichia coli, UniProt Q8VNN2); assay: PubChem AID 485352; type: functional
[13] = Trypanosoma cruzi growth suppression in host cells – NIH3T3 host cells, beta-gal luminescence, confirmation (AID 2044); type: functional, cell-based;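 note: intracellular parasites grown in NIH/3T3 mouse fibroblasts as host cells; luminescent beta-galactosidase reporter signal from transgenic T. cruzi replicating inside host cells; inhibitors lower the luminescence signal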
[14] = target: Type-1 angiotensin II receptor (Homo sapiens, UniProt P30556); assay: antagonism of angiotensin II type 1 receptor – cell-based, uHTS hits, selectivity assay for APJ receptor antagonist project, dose response (AID 463214); type: functional;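 note: antagonist potency against angiotensin II stimulated AT1 response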
[15] = target: T4, Kappa-type opioid receptor (Homo sapiens, UniProt P41145); type: functional
[16] = NIH3T3 cell viability loss – ATP luminescence, mouse fibroblasts, counter-screen, dose response (AID 2010); type: functional, cell-based;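 note: cells exposed to compound for about 90 hours before reading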
Beta-galactosidase [17] = target: T3, Beta-galactosidase; type: functional
[18] = target: T4, Kappa-type opioid receptor; type: functional; remark: listed apart in the source
Streptococcus = assay: GAS UMAA2166 growth inhibition – luminescence, BacTiterGlo, counter-screen for streptokinase expression inhibitor project, dose response (AID 1915); type: functional, organism-based;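 note: potency for reduction of bacterial viability or growth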
[19] = THP-1 cell cytotoxicity, dose response, cytotoxicity control for non-replicating M. tuberculosis project (AID 489025); type: functional
[20] = HepG2 cell cytotoxicity, dose response, cytotoxicity control for non-replicating M. tuberculosis project (AID 489018); type: functional; settings: Mycobacterium tuberculosis
[21] = Vero E6 cell cytotoxicity, dose response, cytotoxicity control for non-replicating M. tuberculosis project, secondary assay (AID 492998); type: functional, VeroE6; settings: Vero C1008
cells [22] = type: functional
[23] = target: Beta-2 adrenergic receptor (Homo sapiens, UniProt P07550); assay: ADRB2 activation measured by internalization – cell-based, FAP fluorogen, flow cytometry, cherry pick 1, dose response (AID 588763); type: functional
cells [24] = type: functional, cell-based
cells [25] = type: functional, cell-based; remark: listed apart in the source
[26] = target: T5, Beta-adrenergic receptor kinase 1 (Homo sapiens, UniProt P25098); assay: aptamer displacement from bead-bound GRK2 – biochemical, cherry pick 1, bead flow cytometry, dose response (AID 504500)
T5 sequence (P25098 whole entry): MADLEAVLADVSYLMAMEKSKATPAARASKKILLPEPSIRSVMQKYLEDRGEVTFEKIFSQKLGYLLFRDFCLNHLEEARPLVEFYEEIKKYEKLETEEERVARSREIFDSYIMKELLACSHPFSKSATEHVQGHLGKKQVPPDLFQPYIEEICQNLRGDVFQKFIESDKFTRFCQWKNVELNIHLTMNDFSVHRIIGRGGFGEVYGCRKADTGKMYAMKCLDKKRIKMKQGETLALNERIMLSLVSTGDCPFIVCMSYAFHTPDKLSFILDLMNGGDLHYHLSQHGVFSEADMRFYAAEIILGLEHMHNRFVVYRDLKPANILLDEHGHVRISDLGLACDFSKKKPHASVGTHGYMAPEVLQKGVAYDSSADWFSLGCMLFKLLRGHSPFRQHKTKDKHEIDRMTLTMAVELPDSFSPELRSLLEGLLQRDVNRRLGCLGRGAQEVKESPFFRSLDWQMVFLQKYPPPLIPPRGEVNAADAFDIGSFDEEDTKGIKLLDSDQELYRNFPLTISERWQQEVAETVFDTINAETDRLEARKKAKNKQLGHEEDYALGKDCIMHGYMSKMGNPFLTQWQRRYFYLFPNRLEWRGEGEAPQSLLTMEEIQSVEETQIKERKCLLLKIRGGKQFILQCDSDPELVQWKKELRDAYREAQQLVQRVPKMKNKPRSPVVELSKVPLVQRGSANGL

[27] = target: T5, Beta-adrenergic receptor kinase 1; assay: blockers of aptamer binding to GRK2 – biochemical, flow cytometry beads, FAM-aptamer, powder set 1, dose response (AID 588720)
[28] = target: T6, Carboxy-terminal domain RNA polymerase II polypeptide A small phosphatase 1 (Homo sapiens, UniProt Q9GZU7); assay: CTDSP1 inhibitors, concentration-response, biochemical, absorbance readout, ultra-high-throughput screen actives (AID 540297); type: functional
T6 sequence (Q9GZU7 whole entry): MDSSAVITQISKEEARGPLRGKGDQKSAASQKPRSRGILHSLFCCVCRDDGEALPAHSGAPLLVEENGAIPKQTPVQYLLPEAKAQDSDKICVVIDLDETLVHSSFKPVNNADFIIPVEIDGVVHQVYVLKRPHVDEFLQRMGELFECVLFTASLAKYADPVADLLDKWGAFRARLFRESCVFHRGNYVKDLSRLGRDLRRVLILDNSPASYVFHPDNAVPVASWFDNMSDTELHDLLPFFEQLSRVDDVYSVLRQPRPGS

Vero [29] = assay: cells; type: functional, cell-based; settings: Chlorocebus sabaeus
Vero [30] = assay: cells; type: functional; settings: Chlorocebus sabaeus
[31] = target: T7, Short transient receptor potential channel 4 (Mus musculus, UniProt Q9QUQ5); assay: calcium entry via TRPC4 opening agents – cell-based, HEK293 TRPC4/mu-opioid, Fluo-4 calcium, dose response (AID 434937); type: functional
T7 sequence (Q9QUQ5 whole entry): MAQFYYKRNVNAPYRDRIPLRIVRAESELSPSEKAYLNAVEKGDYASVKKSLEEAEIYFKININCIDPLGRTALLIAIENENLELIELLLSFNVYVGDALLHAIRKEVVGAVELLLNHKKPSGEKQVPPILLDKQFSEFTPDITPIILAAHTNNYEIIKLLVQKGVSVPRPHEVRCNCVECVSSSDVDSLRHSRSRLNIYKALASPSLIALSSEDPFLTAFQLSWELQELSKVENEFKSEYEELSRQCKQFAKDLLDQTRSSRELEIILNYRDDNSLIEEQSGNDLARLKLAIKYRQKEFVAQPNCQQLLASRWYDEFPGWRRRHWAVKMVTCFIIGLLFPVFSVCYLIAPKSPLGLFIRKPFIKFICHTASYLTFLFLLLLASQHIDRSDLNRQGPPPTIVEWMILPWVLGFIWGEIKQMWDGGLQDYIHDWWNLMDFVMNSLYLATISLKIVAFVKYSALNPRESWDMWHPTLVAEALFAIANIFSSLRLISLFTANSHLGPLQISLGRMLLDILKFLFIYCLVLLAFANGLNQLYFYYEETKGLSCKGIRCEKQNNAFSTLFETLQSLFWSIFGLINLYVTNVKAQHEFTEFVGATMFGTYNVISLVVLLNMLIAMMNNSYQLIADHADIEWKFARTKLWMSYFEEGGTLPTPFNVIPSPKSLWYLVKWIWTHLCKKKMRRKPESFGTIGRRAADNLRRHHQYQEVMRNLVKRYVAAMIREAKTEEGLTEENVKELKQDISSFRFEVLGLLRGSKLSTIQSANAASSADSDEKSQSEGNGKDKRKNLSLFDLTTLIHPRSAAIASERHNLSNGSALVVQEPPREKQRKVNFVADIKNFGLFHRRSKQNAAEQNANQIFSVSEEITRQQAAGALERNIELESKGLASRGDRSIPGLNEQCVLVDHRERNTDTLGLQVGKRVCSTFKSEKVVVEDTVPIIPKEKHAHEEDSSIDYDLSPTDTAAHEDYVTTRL

[32] = target: T1, Delta-type opioid receptor; assay: Counterscreen for agonists of heterodimerization of the mu 1 (OPRM1) and delta 1 (OPRD1) opioid receptors: Luminescence-based cell-based high throughput dose response assay to identify agonists of OPRD1 homodimerization. [Related pubchem assays (depositor defined):AID504326, AID504355, AID504692, AID504904, AID504905]; type: functional
Mu-type opioid receptor [33] = target: T2, Mu-type opioid receptor; assay: Counterscreen for agonists of heterodimerization of the mu 1 (OPRM1) and delta 1 (OPRD1) opioid receptors: Luminescence-based cell-based high throughput dose response assay to identify agonists of OPRM1 homodimerization.; type: functional
[34] = target: 5-hydroxytryptamine receptor 5A (Homo sapiens, UniProt P47898); assay: Counterscreen for agonists of OPRM1-OPRD1 heterodimerization: luminescence-based cell-based high throughput dose response assay to identify agonists of 5-hydroxytryptamine (serotonin) 5A receptor (HTR5A). [Related pubchem assays (depositor defined):AID504326, AID504355, AID504692, AID504904, AID504905]; type: functional
Cytochrome P450 2C9 = Cytochrome P450 2C9 (Homo sapiens, UniProt P11712)
[35] = target: Voltage-gated inwardly rectifying potassium channel KCNH2 (Homo sapiens, UniProt Q12809); settings: Potency;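 note: confirmatory quantitative high-throughput screen measuring inhibition of hERG channel activity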
Sequence of Voltage-gated inwardly rectifying potassium channel KCNH2 (Q12809 whole entry): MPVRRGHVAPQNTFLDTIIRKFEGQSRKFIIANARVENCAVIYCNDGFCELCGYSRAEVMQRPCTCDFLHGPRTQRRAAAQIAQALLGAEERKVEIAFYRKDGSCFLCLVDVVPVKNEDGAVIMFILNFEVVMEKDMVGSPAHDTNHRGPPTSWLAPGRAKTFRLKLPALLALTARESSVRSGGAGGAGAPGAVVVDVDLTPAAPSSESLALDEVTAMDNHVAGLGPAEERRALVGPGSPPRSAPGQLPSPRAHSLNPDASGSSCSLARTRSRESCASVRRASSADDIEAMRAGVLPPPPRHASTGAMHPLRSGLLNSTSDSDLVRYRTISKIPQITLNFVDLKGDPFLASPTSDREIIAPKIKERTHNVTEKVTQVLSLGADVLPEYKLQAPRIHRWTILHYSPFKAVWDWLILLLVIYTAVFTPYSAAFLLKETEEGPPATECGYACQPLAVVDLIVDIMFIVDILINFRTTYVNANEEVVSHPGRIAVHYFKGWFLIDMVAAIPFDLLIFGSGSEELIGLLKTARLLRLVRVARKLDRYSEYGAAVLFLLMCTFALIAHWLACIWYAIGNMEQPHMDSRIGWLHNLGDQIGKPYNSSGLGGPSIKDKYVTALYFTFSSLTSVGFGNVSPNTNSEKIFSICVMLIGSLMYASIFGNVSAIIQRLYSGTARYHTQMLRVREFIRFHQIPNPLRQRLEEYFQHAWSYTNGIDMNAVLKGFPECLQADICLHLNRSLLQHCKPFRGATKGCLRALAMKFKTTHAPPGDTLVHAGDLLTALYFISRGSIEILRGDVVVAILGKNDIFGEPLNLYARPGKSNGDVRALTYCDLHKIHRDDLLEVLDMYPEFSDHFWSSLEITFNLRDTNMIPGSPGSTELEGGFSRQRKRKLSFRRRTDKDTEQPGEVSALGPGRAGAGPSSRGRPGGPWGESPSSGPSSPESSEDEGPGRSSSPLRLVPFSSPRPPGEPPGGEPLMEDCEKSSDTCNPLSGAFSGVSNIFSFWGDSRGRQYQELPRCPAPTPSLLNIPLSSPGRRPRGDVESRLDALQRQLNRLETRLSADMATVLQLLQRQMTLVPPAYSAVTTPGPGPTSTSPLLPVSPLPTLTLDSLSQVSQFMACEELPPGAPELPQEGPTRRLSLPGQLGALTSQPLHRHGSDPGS

T1 sequence (P41143 whole entry): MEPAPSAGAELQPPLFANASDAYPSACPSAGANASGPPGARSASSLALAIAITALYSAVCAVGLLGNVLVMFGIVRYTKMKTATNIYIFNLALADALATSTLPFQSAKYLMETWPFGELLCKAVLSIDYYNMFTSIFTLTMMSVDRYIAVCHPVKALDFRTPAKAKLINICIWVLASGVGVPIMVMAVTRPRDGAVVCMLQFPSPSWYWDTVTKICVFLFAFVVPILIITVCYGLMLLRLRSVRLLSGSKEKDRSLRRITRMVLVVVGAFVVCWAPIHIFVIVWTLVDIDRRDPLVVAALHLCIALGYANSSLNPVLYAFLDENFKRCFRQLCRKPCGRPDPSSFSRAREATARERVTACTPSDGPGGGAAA
T4 sequence (P41145 whole entry): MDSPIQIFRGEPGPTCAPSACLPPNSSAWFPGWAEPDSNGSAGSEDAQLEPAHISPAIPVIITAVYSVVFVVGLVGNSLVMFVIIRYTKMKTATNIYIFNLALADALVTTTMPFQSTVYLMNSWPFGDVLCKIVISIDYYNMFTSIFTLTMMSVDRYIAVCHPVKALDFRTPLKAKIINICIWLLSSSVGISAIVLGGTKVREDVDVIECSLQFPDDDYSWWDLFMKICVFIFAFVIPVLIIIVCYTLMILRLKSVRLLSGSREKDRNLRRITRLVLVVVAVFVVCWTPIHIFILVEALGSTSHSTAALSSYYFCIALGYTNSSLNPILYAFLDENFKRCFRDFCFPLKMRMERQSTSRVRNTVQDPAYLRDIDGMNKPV
T3 sequence (Q8VNN2 whole entry): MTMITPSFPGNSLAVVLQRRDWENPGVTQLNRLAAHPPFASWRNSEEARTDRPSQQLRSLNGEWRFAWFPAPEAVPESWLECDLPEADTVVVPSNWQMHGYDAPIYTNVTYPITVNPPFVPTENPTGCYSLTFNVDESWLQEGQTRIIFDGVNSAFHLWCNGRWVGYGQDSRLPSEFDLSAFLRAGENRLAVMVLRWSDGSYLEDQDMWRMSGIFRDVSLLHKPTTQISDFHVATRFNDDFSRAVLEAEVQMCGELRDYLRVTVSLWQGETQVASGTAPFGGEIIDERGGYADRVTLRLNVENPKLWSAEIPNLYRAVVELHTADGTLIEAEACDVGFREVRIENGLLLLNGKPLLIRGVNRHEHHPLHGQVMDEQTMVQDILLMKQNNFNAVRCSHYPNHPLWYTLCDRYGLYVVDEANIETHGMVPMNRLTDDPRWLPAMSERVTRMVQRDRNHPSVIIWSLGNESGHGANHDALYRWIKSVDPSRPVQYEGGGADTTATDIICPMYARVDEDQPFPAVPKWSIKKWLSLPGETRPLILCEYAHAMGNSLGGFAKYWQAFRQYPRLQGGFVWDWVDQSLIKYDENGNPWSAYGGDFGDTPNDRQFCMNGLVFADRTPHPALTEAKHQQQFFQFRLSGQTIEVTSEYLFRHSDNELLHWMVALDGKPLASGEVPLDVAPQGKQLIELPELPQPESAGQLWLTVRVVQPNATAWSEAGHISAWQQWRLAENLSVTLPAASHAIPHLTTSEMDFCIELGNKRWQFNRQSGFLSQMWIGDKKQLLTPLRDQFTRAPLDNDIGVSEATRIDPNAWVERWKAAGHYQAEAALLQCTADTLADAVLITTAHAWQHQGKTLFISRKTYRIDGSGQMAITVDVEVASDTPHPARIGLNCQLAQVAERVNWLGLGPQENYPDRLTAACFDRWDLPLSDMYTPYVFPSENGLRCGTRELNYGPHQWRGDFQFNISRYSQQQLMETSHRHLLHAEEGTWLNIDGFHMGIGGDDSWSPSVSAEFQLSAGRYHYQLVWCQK
T2 sequence (P35372 whole entry): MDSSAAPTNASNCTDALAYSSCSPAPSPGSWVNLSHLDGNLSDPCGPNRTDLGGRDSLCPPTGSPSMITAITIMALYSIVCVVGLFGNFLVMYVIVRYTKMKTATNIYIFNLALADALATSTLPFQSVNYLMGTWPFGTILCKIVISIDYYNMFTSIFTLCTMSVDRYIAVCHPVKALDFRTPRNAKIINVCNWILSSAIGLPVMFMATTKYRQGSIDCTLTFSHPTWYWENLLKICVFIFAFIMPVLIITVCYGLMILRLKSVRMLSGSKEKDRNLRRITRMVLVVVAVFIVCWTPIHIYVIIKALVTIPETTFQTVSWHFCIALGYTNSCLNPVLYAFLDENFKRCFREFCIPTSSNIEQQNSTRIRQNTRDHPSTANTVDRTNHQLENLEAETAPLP
Sequence of 5-hydroxytryptamine receptor 5A (P47898 whole entry): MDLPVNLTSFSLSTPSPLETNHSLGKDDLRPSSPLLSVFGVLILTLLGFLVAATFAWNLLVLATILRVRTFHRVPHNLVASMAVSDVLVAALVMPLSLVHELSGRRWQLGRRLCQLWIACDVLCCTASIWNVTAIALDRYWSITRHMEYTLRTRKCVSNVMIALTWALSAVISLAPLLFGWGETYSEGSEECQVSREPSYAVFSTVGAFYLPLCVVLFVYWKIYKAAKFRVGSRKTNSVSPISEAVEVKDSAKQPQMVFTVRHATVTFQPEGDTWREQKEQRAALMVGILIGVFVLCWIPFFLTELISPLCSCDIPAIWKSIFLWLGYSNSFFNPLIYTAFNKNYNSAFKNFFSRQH
Sequence of CAAX prenyl protease 1 (P47154 whole entry): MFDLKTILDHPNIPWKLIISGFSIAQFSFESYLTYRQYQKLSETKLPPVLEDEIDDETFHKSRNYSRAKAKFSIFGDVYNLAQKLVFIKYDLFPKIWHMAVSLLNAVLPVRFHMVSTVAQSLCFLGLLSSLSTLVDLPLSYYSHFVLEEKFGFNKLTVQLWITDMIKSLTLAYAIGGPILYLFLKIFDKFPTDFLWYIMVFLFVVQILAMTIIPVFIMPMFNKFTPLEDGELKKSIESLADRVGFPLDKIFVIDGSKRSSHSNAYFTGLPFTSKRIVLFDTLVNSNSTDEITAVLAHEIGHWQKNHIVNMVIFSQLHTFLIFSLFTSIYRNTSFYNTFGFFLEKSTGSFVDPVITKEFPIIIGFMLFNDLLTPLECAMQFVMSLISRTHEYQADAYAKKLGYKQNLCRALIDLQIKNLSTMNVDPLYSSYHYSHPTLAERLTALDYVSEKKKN
Sequence of Beta-2 adrenergic receptor (P07550 whole entry): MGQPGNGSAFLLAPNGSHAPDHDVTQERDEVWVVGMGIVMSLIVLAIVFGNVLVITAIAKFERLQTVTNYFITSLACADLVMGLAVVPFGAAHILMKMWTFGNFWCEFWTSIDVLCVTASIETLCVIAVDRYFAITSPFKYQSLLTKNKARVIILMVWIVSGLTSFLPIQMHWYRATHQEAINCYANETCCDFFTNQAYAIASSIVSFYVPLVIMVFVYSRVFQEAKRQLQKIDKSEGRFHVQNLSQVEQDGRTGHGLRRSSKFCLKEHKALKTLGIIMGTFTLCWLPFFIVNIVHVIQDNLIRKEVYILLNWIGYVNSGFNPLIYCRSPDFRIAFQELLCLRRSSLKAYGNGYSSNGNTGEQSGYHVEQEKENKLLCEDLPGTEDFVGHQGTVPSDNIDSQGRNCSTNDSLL
Sequence of Type-1 angiotensin II receptor (P30556 whole entry): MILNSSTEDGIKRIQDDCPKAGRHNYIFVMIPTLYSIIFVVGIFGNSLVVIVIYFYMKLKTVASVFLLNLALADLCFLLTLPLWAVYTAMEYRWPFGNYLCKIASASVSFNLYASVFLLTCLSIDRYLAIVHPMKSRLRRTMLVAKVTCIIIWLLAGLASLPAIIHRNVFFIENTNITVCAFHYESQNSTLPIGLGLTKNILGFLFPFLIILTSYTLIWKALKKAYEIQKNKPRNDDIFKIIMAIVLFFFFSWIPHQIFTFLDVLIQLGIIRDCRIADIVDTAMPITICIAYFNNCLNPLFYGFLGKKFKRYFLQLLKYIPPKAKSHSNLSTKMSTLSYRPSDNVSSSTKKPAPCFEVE

Cc1ccc(-c2cc(-c3ccc(C)cc3)[n+](-c3ccccc3)c(-c3ccc(C)cc3)c2)cc1.[O-][Cl+3]([O-])([O-])[O-]
EC50 [1]: 18.4 µM (inconclusive)
EC50 (BJ [2]): 0.689 µM (active)
EC50 (BJ [3]): 2.12 µM (active)
EC50 [4]: 0.178 µM (active)
EC50 (BJ [5]): 1.33 µM (inconclusive)
EC50 [6]: 1.05 µM (active)
AC50 (Trypsin): 23.8 µM (active)
IC50 [7]: 20.3 µM (inactive)
AC50 (CAAX prenyl protease 1): 13.7 µM (active)
AC50 (INS1): 0.382 µM (active)
AC50 (CAAX prenyl protease 2): 20.7 µM (active)

Cc1[nH]c2ccccc2c1/C=C1\SC(=N)N(c2nccs2)C1=O
IC50 [8]: 23.4 µM (inactive)
EC50 (Mu-type opioid receptor [9]): > 32 µM (inactive)
EC50 [10]: 0.198 µM (active)
EC50 [11]: > 32 µM (inactive)
EC50 (Beta-galactosidase [12]): > 40 µM (inactive)
EC50 [13]: 1.17 µM (active)
IC50 [14]: 14.8 µM (active)
IC50 [15]: 6.76 µM (active)
EC50 [16]: 5.8 µM (active)
EC50 (Beta-galactosidase [17]): > 31.5 µM (inactive)
IC50 [18]: 18.1 µM
EC50 (Streptococcus): 1.08 µM (active)
CC50 [19]: 10.1 µM (active)
CC50 [20]: 8.83 µM (active)
CC50 [21]: 5.16 µM (active)
IC50 (cells [22]): < 0.1 µM (active)

CN(C)c1ccc(-c2noc(C3CCN(S(=O)(=O)c4cccc(Cl)c4)CC3)n2)cc1
EC50 [23]: 1.23 µM (active)

O=C(CSc1nc2ccccc2c(=O)n1-c1ccccc1)NC(=O)CN1CCCC1=O
EC50 (cells [24]): > 350 µM (not active)
EC50 (cells [25]): > 350 µM (not active)
EC50 [26]: 9.42 µM (active)
EC50 [27]: 2.96 µM (active)
IC50 [28]: 8.75 µM (active)

COc1ccc(S(=O)(=O)N2CCOC23CCN(C(=O)c2ccc(Cl)cc2Cl)CC3)cc1
IC50 (Vero [29]): > 25 µM (active)
CC50 (Vero [30]): > 25 µM (active)

COc1ccc(C(CNC(=O)CCc2ccsc2)N(C)C)cc1 (stereo unspecified)
EC50 [31]: 0.0147 µM (active)
EC50 [32]: 25.6 µM (inactive)
EC50 (Mu-type opioid receptor [33]): 1.42 µM (active)
EC50 [34]: > 92.4 µM (inactive)

CC(C)COC(=O)OCN1C(=O)CN(CCN2CC(=O)N(COC(=O)OCC(C)C)C(=O)C2)CC1=O [SOBUZOXANE]
AC50 (Cytochrome P450 2C9): 39.8 µM (inconclusive)
AC50 [35]: 35.5 µM (inconclusive)
